In PubChem BioAssay AID248 (DTP/NCI, 2004) one finds T/C data, which are given here for 20 compounds.

SMILES strings stand for the structures. Values joined by “and” are separate entries in the source; they are usually repeats but may differ in a detail not shown here. Equal values may be shown once. Toxic doses and inconclusive results are not listed.

For this assay, the system named is L1210 leukemia ip in BDF1 mice, survival T/C. As to the kind of experiment: NCI In Vivo Anticancer Drug Screen. Data for tumor model L1210 Leukemia (intraperitoneal) in B6D2F1 (BDF1) mice. To be noted: endpoint: mean survival time, higher = longer survival. In short, it runs like this: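 Transplantable tumor model; survival measured in treated vs vehicle control mice. Value = treated/control.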

Where [1] appears, read: dose: 100.0 mg/kg/injection, schedule: Q04DX003 (ip), vehicle: saline.
Where [2] appears, read: dose: 200.0 mg/kg/injection, schedule: Q04DX003 (ip), vehicle: saline.
Where [3] appears, read: dose: 100.0 mg/kg/injection, schedule: Q04DX003 (ip), vehicle: Klucel (hydroxypropylcellulose) (HPC).
Setting [4] is: dose: 100.0 mg/kg/injection, schedule: Q01DX009 (ip), vehicle: saline with Tween-80.
Setting [5] is: dose: 200.0 mg/kg/injection, schedule: Q01DX009 (ip), vehicle: saline with Tween-80.
The mark [6] stands for this setting: dose: 100.0 mg/kg/injection, schedule: Q01DX001 (ip), vehicle: Klucel (hydroxypropylcellulose) (HPC).
[7] abbreviates: dose: 100.0 mg/kg/injection, schedule: Q01DX009 (ip), vehicle: Klucel (hydroxypropylcellulose) (HPC).
Setting [8] is: dose: 200.0 mg/kg/injection, schedule: Q01DX001 (ip), vehicle: Klucel (hydroxypropylcellulose) (HPC).
[9] abbreviates: dose: 200.0 mg/kg/injection, schedule: Q01DX009 (ip), vehicle: Klucel (hydroxypropylcellulose) (HPC).
Setting [10] is: dose: 400.0 mg/kg/injection, schedule: Q01DX009 (ip), vehicle: Klucel (hydroxypropylcellulose) (HPC).
The mark [11] stands for this setting: dose: 200.0 mg/kg/injection, schedule: Q04DX003 (ip), vehicle: Klucel (hydroxypropylcellulose) (HPC).
The mark [12] stands for this setting: dose: 400.0 mg/kg/injection, schedule: Q04DX003 (ip), vehicle: Klucel (hydroxypropylcellulose) (HPC).
The mark [13] stands for this setting: dose: 50.0 mg/kg/injection, schedule: Q01DX001 (ip), vehicle: Klucel (hydroxypropylcellulose) (HPC).

Turning to `Cc1ccc(N=C=O)cc1[N+](=O)[O-]`, the T/C runs as follows: (dose: 100.0 mg/kg/injection, schedule: Q01DX009 (ip), vehicle: gum acacia) 100 % of control; (dose: 100.0 mg/kg/injection, schedule: Q04DX003 (ip), vehicle: gum acacia) 98 % of control; (dose: 200.0 mg/kg/injection, schedule: Q01DX009 (ip), vehicle: gum acacia) 89 % of control; (dose: 200.0 mg/kg/injection, schedule: Q04DX003 (ip), vehicle: gum acacia) 101 % of control; (dose: 400.0 mg/kg/injection, schedule: Q01DX009 (ip), vehicle: gum acacia) 94 % of control; (dose: 400.0 mg/kg/injection, schedule: Q04DX003 (ip), vehicle: gum acacia) 90 % of control.

As for `CC(C)C1(C(=O)O)SCCCS1`, the T/C was 100 % of control (dose: 50.0 mg/kg/injection, schedule: Q04DX003 (ip), vehicle: saline); 110 % of control under setting [1]; 102 % of control under setting [2]; 98 % of control (dose: 400.0 mg/kg/injection, schedule: Q04DX003 (ip), vehicle: saline).

As to `Cc1ccc(C[As](C)(=O)O)cc1`, the T/C is 100 % of control (dose: 25.0 mg/kg/injection, schedule: Q04DX003 (ip), vehicle: Klucel (hydroxypropylcellulose) (HPC)); 98 % of control (dose: 50.0 mg/kg/injection, schedule: Q04DX003 (ip), vehicle: Klucel (hydroxypropylcellulose) (HPC)); 97 % of control under setting [3].

For the compound `O=C1OC(=O)c2ccc(Sc3ccccn3)c3cccc1c23`, the T/C (dose: 100.0 mg/kg/injection, schedule: Q04DX003 (ip), vehicle: carboxymethylcellulose (CMC)) is 93 % of control; the T/C (dose: 200.0 mg/kg/injection, schedule: Q04DX003 (ip), vehicle: carboxymethylcellulose (CMC)) is 88 % of control; the T/C (dose: 400.0 mg/kg/injection, schedule: Q04DX003 (ip), vehicle: carboxymethylcellulose (CMC)) is 93 % of control.

For the compound `O=C(CNC(=O)c1ccccc1)N/N=C/c1ccc(Cl)cc1Cl`, the T/C is, setting by setting: under setting [4], 94 % of control; under setting [5], 89 % of control; (dose: 400.0 mg/kg/injection, schedule: Q01DX009 (ip), vehicle: saline with Tween-80) 98 % of control.

As to `O=C1N(CCCl)CCN1c1ccccc1`, the T/C reads like this: under setting [6], 93 % of control; under setting [7], 104 % of control; under setting [8], 96 % of control; under setting [9], 106 % of control; (dose: 400.0 mg/kg/injection, schedule: Q01DX001 (ip), vehicle: Klucel (hydroxypropylcellulose) (HPC)) 95 % of control; under setting [10], 106 % of control.

For the compound `Clc1nc2ncn3ncnc3c2[nH]1`, the T/C was 104 % of control (dose: 100.0 mg/kg/injection, schedule: Q01DX001 (ip), vehicle: saline with Tween-80); 101 % of control (dose: 200.0 mg/kg/injection, schedule: Q01DX001 (ip), vehicle: saline with Tween-80); 92 % of control (dose: 400.0 mg/kg/injection, schedule: Q01DX001 (ip), vehicle: saline with Tween-80).

Regarding `O=C1C(CCSc2ccccc2)C(=O)N(c2ccccc2)C1c1ccccc1` (stereo unspecified), the T/C under setting [7] was 93 % of control, the T/C under setting [9] was 94 % of control and the T/C under setting [10] is 95 % of control.

Turning to `O=C(CCCC(=O)N/N=C/c1ccc2ccccc2n1)N/N=C\c1ccc2ccccc2n1`, the T/C runs as follows: (dose: 50.0 mg/kg/injection, schedule: Q01DX001 (ip), vehicle: other) 95 % of control; (dose: 100.0 mg/kg/injection, schedule: Q01DX001 (ip), vehicle: other) 88 % of control; (dose: 400.0 mg/kg/injection, schedule: Q01DX001 (ip), vehicle: other) 95 % of control.

Take `Cc1cccc(C)c1NC(=O)OCCOc1ccc(Cl)cc1Cl`: the T/C was 90 % of control (dose: 50.0 mg/kg/injection, schedule: Q01DX009 (ip), vehicle: saline with Tween-80); 95 % of control under setting [4]; 95 % of control under setting [5].

As to `CC(=O)/C=C(/C)O`, the T/C runs as follows: under setting [1], 100 % of control; under setting [2], 118 % of control.

Turning to `Oc1ccccc1OCCOCCCl`, the T/C by setting is: (dose: 100.0 mg/kg/injection, schedule: Q04DX002 (sc), vehicle: olive oil, sesame oil, peanut oil) 93 % of control; (dose: 200.0 mg/kg/injection, schedule: Q04DX002 (sc), vehicle: olive oil, sesame oil, peanut oil) 101 % of control; (dose: 400.0 mg/kg/injection, schedule: Q04DX002 (sc), vehicle: olive oil, sesame oil, peanut oil) 246 % of control.

Take `CCCCN(C)N=Nc1ccc(CCCC(=O)OCC)cc1`: the T/C is, setting by setting: (dose: 12.5 mg/kg/injection, schedule: Q01DX009 (ip), vehicle: Klucel (hydroxypropylcellulose) (HPC)) 108 % of control; (dose: 20.0 mg/kg/injection, schedule: Q01DX009 (ip), vehicle: saline) 107 % of control; (dose: 25.0 mg/kg/injection, schedule: Q01DX009 (ip), vehicle: Klucel (hydroxypropylcellulose) (HPC)) 106 % of control; (dose: 35.0 mg/kg/injection, schedule: Q01DX009 (ip), vehicle: saline) 121 % of control; (dose: 50.0 mg/kg/injection, schedule: Q01DX009 (ip), vehicle: Klucel (hydroxypropylcellulose) (HPC)) 110 % of control; (dose: 50.0 mg/kg/injection, schedule: Q01DX009 (ip), vehicle: saline) 195 % of control. For the same compound, the T/C is, setting by setting: (dose: 55.0 mg/kg/injection, schedule: Q01DX009 (ip), vehicle: saline) 101 % of control and 109 % of control; (dose: 84.0 mg/kg/injection, schedule: Q01DX009 (ip), vehicle: saline) 107 % of control and 115 % of control; under setting [7], 123 % of control; (dose: 100.0 mg/kg/injection, schedule: Q01DX009 (ip), vehicle: saline) 101 % of control; under setting [1], 119 % of control; (dose: 125.0 mg/kg/injection, schedule: Q01DX009 (ip), vehicle: saline) 114 % of control and 119 % of control.

Regarding `NC(=O)C(Cl)Cl`, the T/C was 113 % of control (dose: 100.0 mg/kg/injection, schedule: Q04DX003 (ip), vehicle: saline with Tween-80); 103 % of control (dose: 200.0 mg/kg/injection, schedule: Q04DX003 (ip), vehicle: saline with Tween-80); 94 % of control (dose: 400.0 mg/kg/injection, schedule: Q04DX003 (ip), vehicle: saline with Tween-80).

For the compound `C[N+]1(C)C2CCC1[C@H](C(=O)[O-])[C@@H](O)C2` (stereo partly specified), the T/C was 103 % of control (dose: 100.0 mg/kg/injection, schedule: Q01DX001 (ip), vehicle: saline); 93 % of control (dose: 200.0 mg/kg/injection, schedule: Q01DX001 (ip), vehicle: saline); 98 % of control (dose: 400.0 mg/kg/injection, schedule: Q01DX001 (ip), vehicle: saline).

Take `Cc1cc(Cl)ccc1OC(=O)Nc1c(C)cccc1C`: the T/C is 101 % of control under setting [7]; 98 % of control under setting [3]; 101 % of control under setting [9]; 103 % of control under setting [11]; 89 % of control under setting [10]; 101 % of control under setting [12].

Take `COc1ccccc1-n1c(O)c(N=Nc2ccc(Br)cc2)c(=O)n(-c2ccc(Br)cc2)c1=S`: the T/C is 93 % of control under setting [13], 109 % of control under setting [6] and 102 % of control under setting [8].

For `O=Cc1ccc(N(c2ccccc2)c2ccccc2)cc1`, the T/C runs as follows: under setting [7], 102 % of control; under setting [3], 96 % of control; under setting [9], 91 % of control; under setting [11], 100 % of control; under setting [10], 94 % of control; under setting [12], 94 % of control.

For `Nc1nc(N)c(CCCOc2ccc(NC(=O)CBr)cc2)c(N)n1`, the T/C is 98 % of control (dose: 12.5 mg/kg/injection, schedule: Q01DX001 (ip), vehicle: Klucel (hydroxypropylcellulose) (HPC)); 100 % of control (dose: 25.0 mg/kg/injection, schedule: Q01DX001 (ip), vehicle: Klucel (hydroxypropylcellulose) (HPC)); 105 % of control under setting [13].

For the compound `CC(=O)[O][Hg][c]1cc[c]([Hg][O]C(C)=O)s1`, the T/C is, setting by setting: (dose: 3.0 mg/kg/injection, schedule: Q01DX009 (ip), vehicle: Klucel (hydroxypropylcellulose) (HPC)) 91 % of control; (dose: 6.0 mg/kg/injection, schedule: Q01DX009 (ip), vehicle: Klucel (hydroxypropylcellulose) (HPC)) 89 % of control; (dose: 12.5 mg/kg/injection, schedule: Q04DX003 (ip), vehicle: Klucel (hydroxypropylcellulose) (HPC)) 100 % of control.
